# Reference: ChEMBL document CHEMBL4011659, “Combining Elements from Two Antagonists of Formyl Peptide Receptor 2 Generates More Potent Peptidomimetic Antagonists” (J Med Chem, 2017)
# The source made the active and inactive calls. No cut-off for these calls is given here. Peptide text beside a SMILES is read from it. * marks the point of attachment. RhodamineB = CCN(CC)c1ccc2c(-c3ccccc3C(=O)*)c3ccc(=[N+](CC)CC)cc-3oc2c1
# Legend:
# [1] = molecular target: T1, fMet-Leu-Phe receptor (Homo sapiens) (UniProt P21462); experiment: Antagonist activity at FPR1 in human peripheral blood polymorphonuclear neutrophils assessed as inhibition of fMLF-induced ROS production at <500 nM preincubated for 5 mins followed fMLF stimulation by isoluminol/HRP-based chemiluminescence assay
# T1 sequence (whole entry): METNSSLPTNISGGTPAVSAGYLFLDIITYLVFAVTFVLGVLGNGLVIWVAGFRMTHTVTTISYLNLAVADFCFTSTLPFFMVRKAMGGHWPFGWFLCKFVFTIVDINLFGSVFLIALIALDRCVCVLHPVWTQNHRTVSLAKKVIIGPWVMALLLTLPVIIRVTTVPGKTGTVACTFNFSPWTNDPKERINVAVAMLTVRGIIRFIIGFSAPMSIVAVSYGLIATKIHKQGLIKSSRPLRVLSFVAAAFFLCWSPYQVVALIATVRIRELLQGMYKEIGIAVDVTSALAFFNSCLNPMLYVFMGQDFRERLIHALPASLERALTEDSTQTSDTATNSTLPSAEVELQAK
# [2] = molecular target: T2, N-formyl peptide receptor 2 (Homo sapiens, UniProt P25090); experiment: Antagonist activity at FPR2 in human peripheral blood polymorphonuclear neutrophils assessed as inhibition of WKYMVM-peptide induced ROS production preincubated for 5 mins followed WKYMVM-peptide stimulation by isoluminol/HRP-based chemiluminescence assay
# T2 sequence (P25090 whole entry): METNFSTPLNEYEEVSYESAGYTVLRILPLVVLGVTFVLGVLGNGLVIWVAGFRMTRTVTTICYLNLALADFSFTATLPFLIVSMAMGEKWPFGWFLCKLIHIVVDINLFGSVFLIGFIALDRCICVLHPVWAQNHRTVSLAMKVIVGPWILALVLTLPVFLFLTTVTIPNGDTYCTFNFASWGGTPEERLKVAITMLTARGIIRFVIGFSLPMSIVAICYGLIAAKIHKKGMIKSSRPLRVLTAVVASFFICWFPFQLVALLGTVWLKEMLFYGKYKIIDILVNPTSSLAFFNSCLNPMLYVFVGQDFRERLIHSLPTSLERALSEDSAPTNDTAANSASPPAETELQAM
# [3] = molecular target: T3, N-formyl peptide receptor 2 (Homo sapiens) (UniProt P25090); experiment: Antagonist activity at FPR2 in human peripheral blood polymorphonuclear neutrophils assessed as inhibition of WKYMVM-peptide induced ROS production at <500 nM preincubated for 5 mins followed WKYMVM-peptide stimulation by isoluminol/HRP-based chemiluminescence assay
# T3 sequence (whole entry): T2 sequence (P25090 whole entry)
# [4] = tested on: Neutrophil; experiment: Inhibition of PMA-induced superoxide production in human peripheral blood polymorphonuclear neutrophils at 500 nM preincubated for 5 mins followed PMA stimulation by isoluminol/HRP-based chemiluminescence assay; format: functional, cell-based
# [5] = molecular target: T2, N-formyl peptide receptor 2; experiment: Antagonist activity at FPR2 in human peripheral blood polymorphonuclear neutrophils assessed as inhibition of WKYMVM-peptide induced ROS production preincubated for 5 mins followed WKYMVM-peptide stimulation measured up to 20 mins by isoluminol-based chemiluminescence assay
# [6] = molecular target: T1, fMet-Leu-Phe receptor (Homo sapiens); experiment: Antagonist activity at FPR1 in human peripheral blood polymorphonuclear neutrophils assessed as inhibition of fMLF-induced ROS production at >= 1 uM preincubated for 5 mins followed by fMLF stimulation by isoluminol/HRP-based chemiluminescence assay
SMILES,inhibition [1],IC50 [2],further results
CCN(CC)c1ccc2c(-c3ccccc3C(=O)N[C@@H](CCCCN)C(=O)N(CCC(=O)N[C@@H](CCCCN)C(=O)N(CCC(=O)N[C@@H](CCCCN)C(=O)N(CCC(=O)N[C@@H](CCCCN)C(=O)N(CCC(=O)N[C@@H](CCCCN)C(=O)N(CCC(N)=O)Cc3ccccc3)Cc3ccccc3)Cc3ccccc3)Cc3ccccc3)Cc3ccccc3)c3ccc(=[N+](CC)CC)cc-3oc2c1,inactive,18 nM,
CCN(CC)c1ccc2c(-c3ccccc3C(=O)N[C@@H](CCCCN)C(=O)N(CCC(=O)N[C@@H](CCCCN)C(=O)N(CCC(=O)N[C@@H](CCCCN)C(=O)N(CCC(=O)N[C@@H](CCCCN)C(=O)N(CCC(=O)N[C@@H](CCCCN)C(=O)N(CCC(=O)N[C@@H](CCCCN)C(=O)N(CCC(=O)N[C@@H](CCCCN)C(=O)N(CCC(N)=O)Cc3ccccc3)Cc3ccccc3)Cc3ccccc3)Cc3ccccc3)Cc3ccccc3)Cc3ccccc3)Cc3ccccc3)c3ccc(=[N+](CC)CC)cc-3oc2c1,inactive,35 nM,
CCN(CC)c1ccc2c(-c3ccccc3C(=O)N[C@@H](CCCCN)C(=O)N(CCC(=O)N[C@@H](CCCCN)C(=O)N(CCC(=O)N[C@@H](CCCCN)C(=O)N(CCC(=O)N[C@@H](CCCCN)C(=O)N(CCC(=O)N[C@@H](CCCCN)C(=O)N(CCC(=O)N[C@@H](CCCCN)C(=O)N(CCC(=O)N[C@@H](CCCCN)C(=O)N(CCC(=O)N[C@@H](CCCCN)C(=O)N(CCC(N)=O)Cc3ccccc3)Cc3ccccc3)Cc3ccccc3)Cc3ccccc3)Cc3ccccc3)Cc3ccccc3)Cc3ccccc3)Cc3ccccc3)c3ccc(=[N+](CC)CC)cc-3oc2c1,inactive,41 nM,
CCN(CC)c1ccc2c(-c3ccccc3C(=O)N[C@@H](CCCCN)C(=O)N[C@@H](Cc3ccccc3)C(=O)N[C@@H](CCCCN)C(=O)N[C@@H](Cc3ccccc3)C(=O)N[C@@H](CCCCN)C(=O)N[C@@H](Cc3ccccc3)C(=O)N[C@@H](CCCCN)C(=O)N[C@@H](Cc3ccccc3)C(=O)N[C@@H](CCCCN)C(=O)N[C@@H](Cc3ccccc3)C(=O)N[C@@H](CCCCN)C(=O)N[C@@H](Cc3ccccc3)C(N)=O)c3ccc(=[N+](CC)CC)cc-3oc2c1 (RhodamineB-KFKFKFKFKFKF-NH2),inactive,,inhibition [3]: inactive
CCN(CC)c1ccc2c(-c3ccccc3C(=O)N[C@@H](CCCCN)C(=O)N(CCC(=O)N[C@@H](CCCCN)C(=O)N(CCC(=O)N[C@@H](CCCCN)C(=O)N(CCC(=O)N[C@@H](CCCCN)C(=O)N(CCC(=O)N[C@@H](CCCCN)C(=O)N(CCC(=O)N[C@@H](CCCCN)C(=O)N(CCC(N)=O)Cc3cc(F)c(F)c(F)c3)Cc3cc(F)c(F)c(F)c3)Cc3cc(F)c(F)c(F)c3)Cc3cc(F)c(F)c(F)c3)Cc3cc(F)c(F)c(F)c3)Cc3cc(F)c(F)c(F)c3)c3ccc(=[N+](CC)CC)cc-3oc2c1,inactive,53 nM,
CCN(CC)c1ccc2c(-c3ccccc3C(=O)N[C@@H](CCCCN)C(=O)N(CCC(=O)N[C@@H](CCCCN)C(=O)N(CCC(=O)N[C@@H](CCCCN)C(=O)N(CCC(=O)N[C@@H](CCCCN)C(=O)N(CCC(=O)N[C@@H](CCCCN)C(=O)N(CCC(=O)N[C@@H](CCCCN)C(=O)N(CCC(N)=O)Cc3ccc(C)cc3)Cc3ccc(C)cc3)Cc3ccc(C)cc3)Cc3ccc(C)cc3)Cc3ccc(C)cc3)Cc3ccc(C)cc3)c3ccc(=[N+](CC)CC)cc-3oc2c1,inactive,24 nM,
CCN(CC)c1ccc2c(-c3ccccc3C(=O)N[C@@H](CCCCN)C(=O)N(CCC(=O)N[C@@H](CCCCN)C(=O)N(CCC(=O)N[C@@H](CCCCN)C(=O)N(CCC(=O)N[C@@H](CCCCN)C(=O)N(CCC(=O)N[C@@H](CCCCN)C(=O)N(CCC(=O)N[C@@H](CCCCN)C(=O)N(CCC(N)=O)Cc3ccc(F)cc3)Cc3ccc(F)cc3)Cc3ccc(F)cc3)Cc3ccc(F)cc3)Cc3ccc(F)cc3)Cc3ccc(F)cc3)c3ccc(=[N+](CC)CC)cc-3oc2c1,inactive,10 nM,inhibition [4]: Active
CCN(CC)c1ccc2c(-c3ccccc3C(=O)N[C@@H](CCCCN)C(=O)N(CCC(N)=O)Cc3ccccc3)c3ccc(=[N+](CC)CC)cc-3oc2c1,inactive,759 nM,
CCN(CC)c1ccc2c(-c3ccccc3C(=O)N[C@@H](CCCCN)C(=O)N(CCC(=O)N[C@@H](CCCCN)C(=O)N(CCC(=O)N[C@@H](CCCCN)C(=O)N(CCC(N)=O)Cc3ccccc3)Cc3ccccc3)Cc3ccccc3)c3ccc(=[N+](CC)CC)cc-3oc2c1,inactive,28 nM,
"CCN(CC)c1ccc2c(-c3ccccc3C(=O)N[C@@H](CCC(N)=O)C(=O)N[C@@H](CCCNC(=N)N)C(=O)N[C@@H](CC(C)C)C(=O)N[C@@H](Cc3ccccc3)C(=O)N[C@@H](CCC(N)=O)C(=O)NC(C(=O)N[C@@H](CCCCN)C(=O)NCC(=O)N[C@@H](CCCNC(=N)N)C(=O)N[C@@H](CCCNC(=N)N)C(=O)O)C(C)C)c3ccc(=[N+](CC)CC)cc-3oc2c1 (single isomer, unassigned)",inactive,,IC50 [5]: 60 nM
CCCCCCCCCCCCCCCC(=O)N[C@H](CCC(N)=O)C(=O)N[C@H](CCCNC(=N)N)C(=O)N[C@H](CC(C)C)C(=O)N[C@H](Cc1ccccc1)C(=O)N[C@H](CCC(N)=O)C(=O)N[C@@H](C(=O)N[C@H](CCCCN)C(=O)NCC(=O)N[C@H](CCCNC(=N)N)C(=O)N[C@H](CCCNC(=N)N)C(N)=O)C(C)C,,1120 nM,inhibition [6]: Active
CCN(CC)c1ccc2c(-c3ccccc3C(=O)N[C@@H](CCCCN)C(=O)N(CCC(=O)N[C@@H](CCCCN)C(=O)N(CCC(=O)N[C@@H](CCCCN)C(=O)N(CCC(=O)N[C@@H](CCCCN)C(=O)N(CCC(=O)N[C@@H](CCCCN)C(=O)N(CCC(=O)N[C@@H](CCCCN)C(=O)N(CCC(N)=O)[C@@H](C)c3ccccc3)[C@@H](C)c3ccccc3)[C@@H](C)c3ccccc3)[C@@H](C)c3ccccc3)[C@@H](C)c3ccccc3)[C@@H](C)c3ccccc3)c3ccc(=[N+](CC)CC)cc-3oc2c1,inactive,34 nM,
CCCCCCCCCCCCCCCC(=O)N[C@@H](CCCCN)C(=O)N(CCC(=O)N[C@@H](CCCCN)C(=O)N(CCC(=O)N[C@@H](CCCCN)C(=O)N(CCC(=O)N[C@@H](CCCCN)C(=O)N(CCC(=O)N[C@@H](CCCCN)C(=O)N(CCC(=O)N[C@@H](CCCCN)C(=O)N(CCC(N)=O)[C@@H](C)c1ccccc1)[C@@H](C)c1ccccc1)[C@@H](C)c1ccccc1)[C@@H](C)c1ccccc1)[C@@H](C)c1ccccc1)[C@@H](C)c1ccccc1,inactive,,IC50 [5]: 41 nM
CCN(CC)c1ccc2c(-c3ccccc3C(=O)N[C@H](CCC(N)=O)C(=O)N[C@H](CCCNC(=N)N)C(=O)N[C@H](CC(C)C)C(=O)N[C@H](Cc3ccccc3)C(=O)N[C@H](CCC(N)=O)C(=O)N[C@@H](C(=O)N[C@H](CCCCN)C(=O)NCC(=O)N[C@H](CCCNC(=N)N)C(=O)N[C@H](CCCNC(=N)N)C(N)=O)C(C)C)c3ccc(=[N+](CC)CC)cc-3oc2c1,inactive,,inhibition [3]: inactive
"CCCCCCCCCCCCCCCC(=O)N[C@@H](CCC(N)=O)C(=O)N[C@@H](CCCNC(=N)N)C(=O)N[C@@H](CC(C)C)C(=O)N[C@@H](Cc1ccccc1)C(=O)N[C@@H](CCC(N)=O)C(=O)NC(C(=O)N[C@@H](CCCCN)C(=O)NCC(=O)N[C@@H](CCCNC(=N)N)C(=O)N[C@@H](CCCNC(=N)N)C(N)=O)C(C)C (single isomer, unassigned)",,900 nM,inhibition [6]: Active
CCN(CC)c1ccc2c(-c3ccccc3C(=O)N[C@@H](CCCCN)C(=O)N(CCC(=O)N[C@@H](CCCCN)C(=O)N(CCC(N)=O)Cc3ccccc3)Cc3ccccc3)c3ccc(=[N+](CC)CC)cc-3oc2c1,inactive,273 nM,
CCN(CC)c1ccc2c(-c3ccccc3C(=O)N[C@@H](CCCCN)C(=O)N(CCC(=O)N[C@@H](CCCCN)C(=O)N(CCC(=O)N[C@@H](CCCCN)C(=O)N(CCC(=O)N[C@@H](CCCCN)C(=O)N(CCC(N)=O)Cc3ccccc3)Cc3ccccc3)Cc3ccccc3)Cc3ccccc3)c3ccc(=[N+](CC)CC)cc-3oc2c1,inactive,13 nM,
CCN(CC)c1ccc2c(-c3ccccc3C(=O)N[C@@H](CCCCN)C(=O)N(CCC(=O)N[C@@H](CCCCN)C(=O)N(CCC(=O)N[C@@H](CCCCN)C(=O)N(CCC(=O)N[C@@H](CCCCN)C(=O)N(CCC(=O)N[C@@H](CCCCN)C(=O)N(CCC(=O)N[C@@H](CCCCN)C(=O)N(CCC(N)=O)[C@H](C)c3ccccc3)[C@H](C)c3ccccc3)[C@H](C)c3ccccc3)[C@H](C)c3ccccc3)[C@H](C)c3ccccc3)[C@H](C)c3ccccc3)c3ccc(=[N+](CC)CC)cc-3oc2c1,inactive,44 nM,
